Earlier results in patent US9156886B2, “Cyclosporin analogues for preventing or treating hepatitis C infection” (priority 2009, dated 2015).

Key:
[1] = test system: hepatitis C virus; settings: published results, Antiviral Research 65(3):A41 (2005)
[2] = target: cyclophilin A (Homo sapiens, UniProt P62937)
Chain of cyclophilin A (P62937 whole entry, species assumed): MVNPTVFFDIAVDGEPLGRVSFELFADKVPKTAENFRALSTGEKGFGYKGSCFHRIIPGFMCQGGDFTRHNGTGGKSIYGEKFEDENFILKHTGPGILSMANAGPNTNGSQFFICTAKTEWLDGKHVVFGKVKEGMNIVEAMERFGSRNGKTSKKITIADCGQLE

C/C=C/C[C@@H](C)[C@@H](O)[C@H]1C(=O)N[C@@H](CC)C(=O)N(C)[C@H](C)C(=O)N(CC)[C@@H](C(C)C)C(=O)N[C@@H](C(C)C)C(=O)N(C)[C@@H](CC(C)C)C(=O)N[C@@H](C)C(=O)N[C@H](C)C(=O)N(C)[C@@H](CC(C)C)C(=O)N(C)[C@@H](CC(C)C)C(=O)N(C)[C@@H](C(C)C)C(=O)N1C [DEBIO-025]
inhibition of hepatitis C virus replication [1]: potent and selective inhibition
binding affinity for cyclophilin A [2]: potent binding affinity
